Data from US20250026748A1, “N-(5-SUBSTITUTED-[(1,3,4-THIADIAZOLYL) OR (THIAZOLYL)])(SUBSTITUTED)CARBOXAMIDE COMPOUNDS AND USE THEREOF FOR INHIBITING HUMAN POLYMERASE THETA” (Repare Therapeutics Inc., priority 2021, published 2025).

Target: PolQ ATPase enzyme (1-894) (Homo sapiens (Human), UniProt O75417)
Experiment: Polθ ATPase enzymatic assay (0.5 nM enzyme concentration), ADP-Glo
Assay type: biochemical
Conditions: average IC50; 0.5 nM PolQ ATPase enzyme (1-894)
Outline: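 Enzyme (0.5 nM) pre-incubated 15 min at rt with 10-point inhibitor series in 50 mM Tris pH 7.5, 10% glycerol, 5 mM DTT, 10 mM MgCl2, 0.1 mg/ml BSA; reaction started with 20 nM fork DNA and 100 μM ATP, run 180 min at rt. ADP-Glo luminescence; IC50 from 4-parameter variable-slope fit.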

PolQ ATPase enzyme (1-894), sequence (O75417 1-894): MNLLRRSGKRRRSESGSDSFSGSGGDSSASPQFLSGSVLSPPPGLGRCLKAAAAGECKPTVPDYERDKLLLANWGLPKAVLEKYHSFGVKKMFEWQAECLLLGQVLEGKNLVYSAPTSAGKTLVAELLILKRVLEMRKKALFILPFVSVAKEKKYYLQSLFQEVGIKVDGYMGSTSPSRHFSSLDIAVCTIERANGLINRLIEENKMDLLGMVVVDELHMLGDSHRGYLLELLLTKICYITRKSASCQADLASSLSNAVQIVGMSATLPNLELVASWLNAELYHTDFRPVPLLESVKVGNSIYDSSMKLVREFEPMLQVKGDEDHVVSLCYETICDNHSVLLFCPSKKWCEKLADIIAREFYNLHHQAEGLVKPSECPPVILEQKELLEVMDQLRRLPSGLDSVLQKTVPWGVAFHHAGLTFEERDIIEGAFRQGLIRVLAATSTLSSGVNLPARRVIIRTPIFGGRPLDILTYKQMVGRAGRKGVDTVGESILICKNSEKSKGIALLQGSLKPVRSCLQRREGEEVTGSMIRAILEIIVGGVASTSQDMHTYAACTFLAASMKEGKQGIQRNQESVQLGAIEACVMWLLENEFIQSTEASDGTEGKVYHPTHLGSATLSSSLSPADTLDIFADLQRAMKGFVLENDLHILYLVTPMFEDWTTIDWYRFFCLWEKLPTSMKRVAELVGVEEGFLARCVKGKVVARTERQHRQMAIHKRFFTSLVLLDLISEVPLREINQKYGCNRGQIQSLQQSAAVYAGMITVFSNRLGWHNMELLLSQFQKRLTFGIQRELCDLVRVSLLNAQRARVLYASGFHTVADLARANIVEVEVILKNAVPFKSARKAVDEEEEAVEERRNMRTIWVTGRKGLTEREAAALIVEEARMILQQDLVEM

Compared with COc1cnc(C(F)F)cc1-c1cc(-c2ccn(C)n2)cnc1C(=O)Nc1ncc(C#CC2CC2)s1 [Compound 139, N-(5-(cyclopropylethynyl)thiazol-2-yl)-2′-(difluoromethyl)-5′-methoxy-5-(1-methyl-1H-pyrazol-3-yl)-[3,4′-bipyridine]-2-carboxamide], COc1cnc(C(F)F)cc1-c1cc(-c2nnc(C)o2)ccc1C(=O)Nc1ncc(C#CC2CC2)s1 [Compound 120] is 24-fold lower in IC50: 61 nM for the first, 2.5 nM for the second.

First: COc1cnc(C(F)F)cc1-c1cc(C(=O)N(C)C)ccc1C(=O)Nc1nnc(C#CC2CC2)s1 [Compound 258]
Second: COc1cnc(C(F)F)cc1-c1cc(C2C[C@@H]2C(=O)N(C)C)ccc1C(=O)Nc1nnc(C#CC2CC2)s1 (stereo partly shown) [Compound 362]
The IC50 of the first is 2.1-fold higher: 2.9 nM for the first, 1.4 nM for the second. The second is the more potent here.

COc1cnc(C(F)F)cc1-c1cc(N2CC(C)CCC2=O)ncc1C(=O)Nc1nnc(C#CC2CC2)s1 (stereo not shown) [Compound 389] and COc1cnc(C(F)F)cc1-c1cc(N2CC3CC3CC2=O)ncc1C(=O)Nc1nnc(C#CC2CC2)s1 (stereo not shown) [Compound 388] cannot be ordered by IC50: less than 0.25 nM for the first, less than 0.25 nM for the second.

First: COc1cnc(Cl)cc1-c1cc(N2CCC(O)C2=O)ccc1C(=O)Nc1nnc(C#CC2CC2)s1 (stereo not shown) [Compound 277]
Second: COc1cnc(Cl)cc1-c1cc(C#N)ccc1C(=O)Nc1nnc(C#CC2CC2)s1 [Compound 40]
The IC50 of the first is higher: 3.2 nM for the first, less than 0.25 nM for the second. The second is the more potent here.

COc1cnc(C(F)F)cc1-c1cc(Oc2cnn(C)c2)ncc1C(=O)Nc1nnc(C#CC2CC2)s1 [Compound 271] and COc1cnc(C(F)F)cc1-c1cc(Oc2ccn(C)n2)ncc1C(=O)Nc1nnc(C#CC2CC2)s1 [Compound 175] are within 1.5-fold of each other in IC50: 0.64 nM for the first, 0.51 nM for the second.

First: CNC(=O)Cc1ccc(C(=O)Nc2nnc(C#CC3CC3)s2)c(-c2cc(C(F)F)ncc2OC)c1 [Compound 230]
Second: COc1cnc(C(F)F)cc1-c1cc(NC(C)=O)ccc1C(=O)Nc1nnc(C#CC2CC2)s1 [Compound 225]
The IC50 of the first is lower: less than 0.25 nM for the first, 0.56 nM for the second.

COc1ccc(C(F)(F)F)cc1-c1cn(CC(N)=O)c(=O)cc1C(=O)Nc1nnc(C#CC2CC2)s1 [Compound 95] and COc1ccc(C(F)(F)F)cc1-c1cn(CC(=O)N(C)C)c(=O)cc1C(=O)Nc1nnc(C#CC2CC2)s1 [Compound 75] cannot be ordered by IC50: less than 0.25 nM for the first, less than 0.25 nM for the second.

First: COc1cnc(C(F)F)cc1-c1cnccc1C(=O)Nc1nnc(C2C[C@H]2c2ccc(C#N)nc2)s1 (stereo partly shown) [Compound 266]
Second: COc1cnc(Cl)cc1-c1cnccc1C(=O)Nc1nnc([C@@H]2C[C@H]2c2ccc(C#N)c(C)c2)s1 [Compound 287]
The IC50 of the first is 4.7-fold higher: 4.4 nM for the first, 0.93 nM for the second. The second is the more potent here.

Going from COc1ccc(C(F)(F)F)cc1-c1cn(C)c(=O)cc1C(=O)Nc1nnc(C#Cc2cc(C)[nH]n2)s1 [Compound 102] to COc1ccc(C(F)(F)F)cc1-c1cn(C2COC2)c(=O)cc1C(=O)Nc1nnc(C#Cc2cc(C)[nH]n2)s1 [Compound 78], the IC50 rises from 1.2 nM to 2.71 nM (2.3-fold). The first is the more potent here.

Going from COc1cnc(C(F)F)cc1-c1cc(N2CCCCC2=O)ccc1C(=O)Nc1ncc(C#CC2CC2)s1 [Compound 209] to COc1cnc(C(F)F)cc1-c1cc(N2CCCC2=O)ncc1C(=O)Nc1ncc(C#CC2CC2)s1 [Compound 191], the IC50 rises from 0.67 nM to 15 nM (22-fold). The first is the more potent here.

Going from COc1cnc(C(F)F)cc1-c1cc(Nc2nnc(C)o2)ccc1C(=O)Nc1nnc(C#CC2CC2)s1 [Compound 152] to COc1cnc(C(F)F)cc1-c1cc(-c2nnc(C)o2)ccc1C(=O)Nc1nnc(C#CC2CC2)s1 [Compound 111, N-(5-(cyclopropylethynyl)-1,3,4-thiadiazol-2-yl)-2-(2-(difluoromethyl)-5-methoxypyridin-4-yl)-4-(5-methyl-1,3,4-oxadiazol-2-yl)benzamide], the IC50 falls from 1.2 nM to 0.78 nM (1.5-fold). The second is the more potent here.

COc1cnc(C(F)F)cc1-c1cc(N2CCN(C)CC2=O)ncc1C(=O)Nc1nnc(C#CC2CC2)s1 [Compound 194] and COc1cnc(C(F)F)cc1-c1cc(N2CCCN(C)CC2=O)ncc1C(=O)Nc1nnc(C#CC2CC2)s1 [Compound 441] are within 1.5-fold of each other in IC50: 0.61 nM for the first, 0.43 nM for the second.

First: COc1cnc(Cl)cc1-c1cnccc1C(=O)Nc1nnc(C2C[C@H]2c2ccc(C#N)cc2OC)s1 (stereo partly shown) [Compound 304]
Second: COc1cnc(Cl)cc1-c1cc(-c2cccnn2)ccc1C(=O)Nc1nnc(C#CC2CC2)s1 [Compound 45]
The IC50 of the first is 5.9-fold higher: 13 nM for the first, 2.2 nM for the second.

Compared with COc1cnc(Cl)cc1-c1cn2ncnc2cc1C(=O)Nc1nnc(C#CC2CC23CC3)s1 (stereo not shown) [Compound 64], COc1cnc(Cl)cc1-c1cn(C)c(=O)cc1C(=O)Nc1nnc(C#CC2CC2)s1 [Compound 32, 2′-chloro-N-(5-(cyclopropylethynyl)-1,3,4-thiadiazol-2-yl)-5′-methoxy-1-methyl-6-oxo-1,6-dihydro-[3,4′-bipyridine]-4-carboxamide] is 2.9-fold lower in IC50: 1.9 nM for the first, 0.66 nM for the second. The second is the more potent here.

Going from COc1cnc(C(F)F)cc1-c1cc(-c2cnn(C3COC3)c2)ccc1C(=O)Nc1nnc(C#CC2CC2)s1 [Compound 372] to COc1cnc(C(F)F)cc1-c1cc(-c2cnn(CCO)c2)ccc1C(=O)Nc1nnc(C#CC2CC2)s1 [Compound 134], the IC50 falls from 0.39 nM to less than 0.25 nM. The second is the more potent here.

Compared with COc1ccc(C(F)F)cc1-c1cn(C)c(=O)cc1C(=O)Nc1nnc(C#CC2CC23CC3)s1 (stereo not shown) [Compound 42], COc1ccc(C(F)F)cc1-c1cn2ncnc2cc1C(=O)Nc1nnc(C#CC2CC2)s1 [Compound 328] is 1.7-fold higher in IC50: 1.8 nM for the first, 3.1 nM for the second. The first is the more potent here.

COc1cnc(C(F)F)cc1-c1cc(-n2cccc(Cl)c2=O)ncc1C(=O)Nc1nnc(C#CC2CC2)s1 [Compound 455] and COc1cnc(C(F)F)cc1-c1cc(-n2cccc(C(F)(F)F)c2=O)ncc1C(=O)Nc1nnc(C#CC2CC2)s1 [Compound 456] cannot be ordered by IC50: less than 0.25 nM for the first, less than 0.25 nM for the second.

Going from Cc1nc(Cn2cc(-c3cc(C(F)(F)F)ccc3Cl)c(C(=O)Nc3nnc(C#CC4CC4)s3)cc2=O)cs1 [Compound 331] to Cc1nnc(-n2cc(-c3cc(C(F)(F)F)ccc3Cl)c(C(=O)Nc3ncc(C#CC4CC4)s3)cc2=O)o1 [Compound 464], the IC50 falls from 24 nM to less than 0.25 nM. The second is the more potent here.

Compared with COc1cnc(C(F)F)cc1-c1cc(CC#N)ncc1C(=O)Nc1ncc(C#CC2CC2)s1 [Compound 198], COc1cnc(C(F)F)cc1-c1cc(CC(=O)N2CC(F)(F)C2)ncc1C(=O)Nc1ncc(C#CC2CC2)s1 [Compound 447] is lower in IC50: 0.53 nM for the first, less than 0.25 nM for the second.

Compared with COc1cnc(C(F)F)cc1-c1cc(-c2nnc(C)o2)ccc1C(=O)Nc1nc(C)c(C#CC2CC2)s1 [Compound 164], COc1cnc(C(F)F)cc1-c1cc(-c2nnc(C)o2)ccc1C(=O)Nc1nc(C#N)c(C#CC2CC2)s1 [Compound 376] is 96-fold lower in IC50: 289 nM for the first, 3 nM for the second.

COc1cnc(C(F)F)cc1-c1cc(N2CCn3cncc3C2=O)ncc1C(=O)Nc1nnc(C#CC2CC2)s1 [Compound 356] and COc1cnc(C(F)F)cc1-c1cc(-n2cnc(C)c(C)c2=O)ncc1C(=O)Nc1nnc(C#CC2CC2)s1 [Compound 451] cannot be ordered by IC50: less than 0.25 nM for the first, less than 0.25 nM for the second.

O=C(Nc1nnc(C#CC2CC2)s1)c1ccncc1-c1cc(Cl)ncc1Cl [Compound 44] and COc1cnc(C(F)F)cc1-c1cc(Cl)ncc1C(=O)Nc1nnc(C#CC2CC2)s1 [Compound 291] are within 1.5-fold of each other in IC50: 0.31 nM for the first, 0.35 nM for the second.

COc1cnc(C(F)F)cc1-c1cc(-c2ccc(C)cn2)ncc1C(=O)Nc1nnc(C#CC2CC2)s1 [Compound 436] and COc1cnc(C(F)F)cc1-c1cc(-c2ccnn2C)ncc1C(=O)Nc1nnc(C#CC2CC2)s1 [Compound 127] cannot be ordered by IC50: less than 0.25 nM for the first, less than 0.25 nM for the second.

Compared with COc1cnc(C(F)F)cc1-c1cc(N(C)Cc2cnn(C)c2)ccc1C(=O)Nc1nnc(C#CC2CC2)s1 [Compound 136], COc1cnc(C(F)F)cc1-c1cc(-c2ccn(C)c2)ncc1C(=O)Nc1nnc(C#CC2CC2)s1 [Compound 411] is 23-fold lower in IC50: 8.5 nM for the first, 0.37 nM for the second. The second is the more potent here.

Compared with COc1cnc(C(F)F)cc1-c1cc(OCC2CCOCC2)ncc1C(=O)Nc1nnc(C#CC2CC2)s1 [Compound 150, N-(5-(cyclopropylethynyl)-1,3,4-thiadiazol-2-yl)-2′-(difluoromethyl)-5′-methoxy-6-((tetrahydro-2H-pyran-4-yl)methoxy)-[4,4′-bipyridine]-3-carboxamide], COc1cnc(C(F)F)cc1-c1cc(C#CCN2CCOCC2)ncc1C(=O)Nc1nnc(C#CC2CC2)s1 [Compound 218] is higher in IC50: less than 0.25 nM for the first, 0.25 nM for the second. The first is the more potent here.

COc1cnc(C(F)F)cc1-c1cc(C#CCN(C)C)ccc1C(=O)Nc1nnc(C#CC2CC2)s1 [Compound 236] and COc1cnc(C(F)F)cc1-c1cc(C#CC(C)(C)CO)ccc1C(=O)Nc1nnc(C#CC2CC2)s1 [Compound 240] are within 1.5-fold of each other in IC50: 0.56 nM for the first, 0.73 nM for the second.

Compared with CNC(=O)Cn1cc(-c2nc(C(F)(F)F)ccc2OC)c(C(=O)Nc2nnc(C#CC3CC3)s2)cc1=O [Compound 52], COc1cnc(C(F)F)cc1-c1cc(CC(=O)N(C)C)ncc1C(=O)Nc1nnc(C#CC2CC2)s1 [Compound 245] is lower in IC50: 2.4 nM for the first, less than 0.25 nM for the second.

First: COc1cnc(C(F)F)cc1-c1cc(OCc2ccn(C)n2)ncc1C(=O)Nc1nnc(C#CC2CC2)s1 [Compound 183]
Second: COc1cnc(C(F)F)cc1-c1cc(N(C)C)ncc1C(=O)Nc1nnc(C#CC2CC2)s1 [Compound 286]
The IC50 of the first is 43-fold lower: 0.49 nM for the first, 21 nM for the second. The first is the more potent here.

Going from COc1cnc(C(F)F)cc1-c1cc(N2CCOC[C@@H]2C)ncc1C(=O)Nc1nnc(C#CC2CC2)s1 [Compound 377] to COc1cnc(C(F)F)cc1-c1cc(N2CCC(C(C)(C)C)CC2=O)ncc1C(=O)Nc1nnc(C#CC2CC2)s1 (stereo not shown) [Compound 444], the IC50 falls from greater than 100 nM to less than 0.25 nM.

First: COc1cnc(C(F)F)cc1-c1cc(C#CC2(C(=O)N(C)C)CC2)ncc1C(=O)Nc1nnc(C#CC2CC2)s1 [Compound 211]
Second: COc1cnc(C(F)F)cc1-c1cc(-c2nnc(NC(C)=O)o2)ccc1C(=O)Nc1nnc(C#CC2CC2)s1 [Compound 418]
The IC50 of the first is lower: less than 0.25 nM for the first, 1.6 nM for the second. The first is the more potent here.

First: COc1cnc(Cl)cc1-c1cc(C#CC2(O)CCOCC2)ccc1C(=O)Nc1nnc(C#CC2CC2)s1 [Compound 53]
Second: COc1cc(N2CCOCC2)c(C(F)(F)F)cc1-c1cnccc1C(=O)Nc1nnc(C#CC2CC2)s1 [Compound 325]
The IC50 of the first is higher: 0.31 nM for the first, less than 0.25 nM for the second. The second is the more potent here.

C#C[C@@H]1CC1c1nnc(NC(=O)c2cnc(-c3ccn(C)n3)cc2-c2cc(C(F)F)ncc2OC)s1 (stereo partly shown) [Compound 154] and COc1cnc(C(F)F)cc1-c1cc(-c2nnc(C)o2)ccc1C(=O)Nc1nnc(C#Cc2cc(C)[nH]n2)s1 [Compound 153] cannot be ordered by IC50: less than 0.25 nM for the first, less than 0.25 nM for the second.
